# Measurements: patent US20240226107A1, “UBIQUITIN-SPECIFIC PROTEASE 1 (USP1) INHIBITOR” (SIMCERE ZAIMING PHARMACEUTICAL CO., LTD., priority 2021, published 2024)
# pIC50: −log10 of the molar value.
# Assays:
# [1] = molecular target: CYP2D6 (Homo sapiens (Human), UniProt P10635); assay: CYP enzyme inhibition in pooled human liver microsomes (bufuralol hydrochloride); type: in vitro ADME
# Protocol: (§1) Typical substrate metabolic responses of five major human CYP subtypes (CYP1A2, CYP2C9, CYP2C19, CYP2D6, CYP3A4) were evaluated using 150-donor pooled human liver microsomes (purchased from Corning, Cat. No.: 452117). The influence of different concentrations of each compound to be tested on metabolic responses of phenacetin (CYP1A2), diclofenac sodium (CYP2C9), S-mephenytoin (CYP2C19), bufuralol hydrochloride (CYP2D6), and midazolam (CYP3A4) was determined by liquid chromatography-mass spectrometry (LC/MS/MS). […] Then 200 μL of acetonitrile solution containing 3% formic acid and 40 nM internal standard verapamil was added and centrifuged at 4000 rpm for 50 min. The mixture was cooled on ice for 20 min and centrifuged at 4000 rpm for 20 min to precipitate the protein. Then 200 μL of supernatant was analyzed by LC-MS/MS. The peak area was calculated from the chromatogram. The residual activity ratio (%) was calculated according to the following equation: Peak area ratio=metabolite peak area/internal standard peak area Residual activity ratio (%)=peak area ratio of compounds-to-be-tested group/peak area ratio of blank group The half inhibitory concentration (IC50) for CYP was calculated by Excel XLfit 5.3.1.3.
# [2] = molecular target: USP1 (Recombinant Human His6-USP1/His6-UAF1 Complex Protein) (Homo sapiens (Human), UniProt O94782); assay: In vitro activity assay for USP1 (Ub-CHOP2-Reporter deubiquitination assay); type: biochemical; details: 0.5 h incubation at room temperature, read-out: In vitro inhibitory activity of USP1 IC50
# Procedure, shortened: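 His6-USP1/His6-UAF1 complex was mixed with compound in 20 mM Tris-HCl pH 8.0, 2 mM CaCl2, 2 mM β-mercaptoethanol and 0.05% CHAPS. Ub-CHOP2 reporter system plus substrate was added, then incubated 0.5 h at room temperature. IC50 came from a four-parameter logistic fit.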
# [3] = molecular target: PXR (Homo sapiens (Human), UniProt O75469); assay: Potential for PXR activation in DPX2 cells; type: cell-based; details: 10 μM, versus 20 μM rifampicin
# Protocol: DMSO solutions of the compounds to be tested and the control compound rifampicin solution were prepared, and diluted with Puracyp dosing medium (Puracyp, Cat. No: D-500-100) at 37° C. to respective test concentrations. The final concentrations of the compounds to be tested were 30 μM, 10 μM, and 1 μM, respectively, and the final concentration of rifampicin was 20 μM. The final concentration of DMSO in the test solution was 0.1%. In addition, 0.1% DMSO solution prepared with Puracyp dosing medium was used as a control.
# DPX2 cells were suspended in Puracyp Culture medium (Puracyp, Cat No.: C-500-100) at a cell density of 4.5×10^5 cell/mL. Then, the suspension was placed on a 96-well culture plate at 100 μL/well for incubation at 37° C. for 24 h. The medium in appropriate wells of the 96-well culture plate was replaced (three times per well) by 100 μL of solution of the compounds to be tested and a control compound solution. After replacement, the plate was incubated at 37° C. for 24 h. The medium was then replaced (three times per well) by a newly prepared test solution of the compounds to be tested and a rifampicin test solution, and the plate was incubated at 37° C. for 24 h.
# The medium in the 96-well culture plate was pipetted and washed twice with PBS. To each well, 50 μL of reagent diluted as required by CellTiter-Fluor™ Cell Viability Assay Kit (Promega, Cat. No.: G6082) was added, and incubated at 37° C. for 0.5 h. The 96-well plate was cooled to room temperature, and the fluorescence value of each well at 505 nm was measured in a fluorescence mode with a microplate reader at an excitation wavelength of 400 nm. Then, 50 μL of reagent prepared as required by One-Glo Luciferase Assay System (Promega, Cat. No.: E6120) was added to each well, and the mixture was incubated at room temperature for 5 min. The luminescence value of each well was read by using a lumen meter.
# Normalized luciferase activity was determined by RLU/RFU, and the RLU and RFU of the samples were mean values of duplicate wells, respectively.
# [formula] • Fold of activation: fold of activation of normalized luciferase; • RLUtest: measured luminescence value of test wells at each test dose of test compounds; • RLUvehicle: measured luminescence value of test wells when tested with the control DMSO solution; • RFUtest: measured fluorescence value of test wells at each test dose of test compounds; • RFUvehicle: measured fluorescence value of test wells when tested with the control DMSO solution.
# The percentage of positive control was calculated as follows:
# % Positive control=(fold activationtest compound−1)/(fold activationpositive control compound−1)×100% • % Positive control: percentage of PXR activation compared with 20 μM rifampicin activation at each test dose of test compounds; • Fold activationtest compound: fold of activation of normalized luciferase at each test dose of test compounds; • Fold activationpositive control compound: fold of activation of normalized luciferase of test compounds under 20 μM rifampicin.
# [4] = molecular target: CYP2C9 (Homo sapiens (Human), UniProt P11712); assay: CYP enzyme inhibition in pooled human liver microsomes (diclofenac sodium); type: in vitro ADME
# Protocol: as §1
# [5] = molecular target: CYP3A4 (Homo sapiens (Human), UniProt P08684); assay: CYP enzyme inhibition in pooled human liver microsomes (midazolam); type: in vitro ADME
# Protocol: as §1
# [6] = test system: MDA-MB-436 cells;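 note: MDA-MB-436 proliferation over 7 days with compound, viability read as ATP luminescence (CellTiter-Glo), inhibition relative to DMSO-only wells, day 0 signal as background, GI50 from four-parameter fit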
# [7] = molecular target: CYP2C19 (Homo sapiens (Human), UniProt P33261); assay: CYP enzyme inhibition in pooled human liver microsomes (S-mephenytoin); type: in vitro ADME
# Protocol: as §1
# [8] = molecular target: CYP1A2 (Homo sapiens (Human), UniProt P05177); assay: CYP enzyme inhibition in pooled human liver microsomes (phenacetin); type: in vitro ADME
# Protocol: as §1
# Sequence of CYP3A4 (P08684 whole entry): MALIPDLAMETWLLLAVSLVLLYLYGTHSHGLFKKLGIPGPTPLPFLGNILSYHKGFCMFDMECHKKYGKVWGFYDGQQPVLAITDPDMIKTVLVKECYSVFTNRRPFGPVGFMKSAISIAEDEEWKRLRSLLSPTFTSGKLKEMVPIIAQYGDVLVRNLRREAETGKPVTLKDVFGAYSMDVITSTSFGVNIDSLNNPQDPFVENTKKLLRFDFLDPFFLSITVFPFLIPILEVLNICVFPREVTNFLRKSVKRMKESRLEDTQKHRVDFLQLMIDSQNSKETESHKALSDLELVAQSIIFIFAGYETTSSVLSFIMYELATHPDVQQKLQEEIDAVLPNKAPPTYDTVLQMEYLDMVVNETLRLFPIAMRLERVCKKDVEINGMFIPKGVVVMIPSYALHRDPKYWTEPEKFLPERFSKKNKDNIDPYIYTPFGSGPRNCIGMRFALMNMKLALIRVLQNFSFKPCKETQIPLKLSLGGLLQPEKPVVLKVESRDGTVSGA
# Sequence of PXR (O75469 whole entry): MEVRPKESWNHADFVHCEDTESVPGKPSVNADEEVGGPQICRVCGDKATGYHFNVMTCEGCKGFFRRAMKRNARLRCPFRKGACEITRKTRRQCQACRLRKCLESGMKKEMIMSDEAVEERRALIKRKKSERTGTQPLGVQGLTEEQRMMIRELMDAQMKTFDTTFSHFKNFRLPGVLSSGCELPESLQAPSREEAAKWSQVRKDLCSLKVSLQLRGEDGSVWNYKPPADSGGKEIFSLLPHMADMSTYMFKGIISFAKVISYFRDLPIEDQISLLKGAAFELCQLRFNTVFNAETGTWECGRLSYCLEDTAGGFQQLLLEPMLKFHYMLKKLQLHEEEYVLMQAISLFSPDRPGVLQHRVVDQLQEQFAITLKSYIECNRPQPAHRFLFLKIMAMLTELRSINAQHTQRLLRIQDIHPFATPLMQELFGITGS
# Sequence of CYP2C19 (P33261 whole entry): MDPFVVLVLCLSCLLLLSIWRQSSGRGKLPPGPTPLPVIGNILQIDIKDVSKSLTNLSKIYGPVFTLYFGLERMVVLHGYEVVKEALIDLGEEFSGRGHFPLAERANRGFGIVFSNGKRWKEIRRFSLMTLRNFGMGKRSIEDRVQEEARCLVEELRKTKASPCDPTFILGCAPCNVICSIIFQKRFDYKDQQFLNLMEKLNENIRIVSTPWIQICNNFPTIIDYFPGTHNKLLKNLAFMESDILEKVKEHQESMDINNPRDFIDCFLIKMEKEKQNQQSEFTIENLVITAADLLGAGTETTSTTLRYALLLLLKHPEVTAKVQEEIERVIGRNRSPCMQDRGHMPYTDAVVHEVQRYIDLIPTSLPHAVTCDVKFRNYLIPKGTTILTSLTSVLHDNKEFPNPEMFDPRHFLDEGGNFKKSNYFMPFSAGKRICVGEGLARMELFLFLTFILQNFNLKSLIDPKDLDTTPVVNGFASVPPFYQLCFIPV
# Sequence of CYP1A2 (P05177 whole entry): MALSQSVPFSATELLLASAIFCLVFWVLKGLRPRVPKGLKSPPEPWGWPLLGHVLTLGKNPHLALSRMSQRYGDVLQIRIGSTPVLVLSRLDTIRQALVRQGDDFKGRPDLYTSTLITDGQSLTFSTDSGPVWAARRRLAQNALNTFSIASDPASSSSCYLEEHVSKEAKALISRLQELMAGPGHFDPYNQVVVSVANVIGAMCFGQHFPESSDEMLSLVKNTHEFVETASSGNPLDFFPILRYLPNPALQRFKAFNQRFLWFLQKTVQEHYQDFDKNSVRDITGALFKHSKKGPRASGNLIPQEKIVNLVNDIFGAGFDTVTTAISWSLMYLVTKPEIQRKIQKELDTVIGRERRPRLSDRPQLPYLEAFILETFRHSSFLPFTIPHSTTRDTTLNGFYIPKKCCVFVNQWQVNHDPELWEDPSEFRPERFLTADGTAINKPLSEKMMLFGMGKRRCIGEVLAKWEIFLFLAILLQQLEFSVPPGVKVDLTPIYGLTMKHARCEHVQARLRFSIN
# Sequence of CYP2C9 (P11712 whole entry): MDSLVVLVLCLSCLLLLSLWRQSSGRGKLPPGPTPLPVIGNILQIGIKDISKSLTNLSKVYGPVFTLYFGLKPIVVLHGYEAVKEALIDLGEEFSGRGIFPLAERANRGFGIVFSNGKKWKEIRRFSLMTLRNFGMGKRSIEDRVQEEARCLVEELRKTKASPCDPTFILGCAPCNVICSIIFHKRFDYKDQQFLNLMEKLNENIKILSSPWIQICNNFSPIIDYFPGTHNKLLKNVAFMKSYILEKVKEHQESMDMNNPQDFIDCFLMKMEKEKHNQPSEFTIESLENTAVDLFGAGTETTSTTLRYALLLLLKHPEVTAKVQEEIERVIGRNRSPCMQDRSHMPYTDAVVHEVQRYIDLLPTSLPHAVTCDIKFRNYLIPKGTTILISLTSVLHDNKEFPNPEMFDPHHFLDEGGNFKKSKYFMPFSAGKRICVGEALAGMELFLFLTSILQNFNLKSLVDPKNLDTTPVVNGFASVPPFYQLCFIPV
# Sequence of USP1 (Recombinant Human His6-USP1/His6-UAF1 Complex Protein) (O94782 whole entry): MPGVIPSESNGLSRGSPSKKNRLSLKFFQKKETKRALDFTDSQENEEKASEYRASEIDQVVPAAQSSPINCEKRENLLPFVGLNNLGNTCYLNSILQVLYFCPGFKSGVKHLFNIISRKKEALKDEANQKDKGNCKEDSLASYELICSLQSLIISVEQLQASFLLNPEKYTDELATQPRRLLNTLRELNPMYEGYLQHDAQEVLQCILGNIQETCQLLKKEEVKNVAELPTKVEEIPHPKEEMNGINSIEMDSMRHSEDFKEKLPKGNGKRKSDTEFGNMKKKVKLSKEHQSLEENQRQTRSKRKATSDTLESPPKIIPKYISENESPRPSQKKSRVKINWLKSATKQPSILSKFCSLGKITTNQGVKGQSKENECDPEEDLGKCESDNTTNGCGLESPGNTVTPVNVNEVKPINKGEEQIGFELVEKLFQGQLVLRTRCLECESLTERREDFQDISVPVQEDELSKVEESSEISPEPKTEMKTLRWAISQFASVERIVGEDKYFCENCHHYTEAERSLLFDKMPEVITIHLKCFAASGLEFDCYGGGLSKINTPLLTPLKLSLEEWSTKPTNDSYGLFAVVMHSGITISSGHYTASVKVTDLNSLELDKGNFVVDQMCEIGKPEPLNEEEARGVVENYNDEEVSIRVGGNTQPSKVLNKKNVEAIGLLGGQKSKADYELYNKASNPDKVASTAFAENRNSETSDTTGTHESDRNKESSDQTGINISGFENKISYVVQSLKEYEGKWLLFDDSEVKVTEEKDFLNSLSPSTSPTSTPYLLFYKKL
# Sequence of USP1 (Recombinant Human His6-USP1/His6-UAF1 Complex Protein) (Q8TAF3 whole entry partner): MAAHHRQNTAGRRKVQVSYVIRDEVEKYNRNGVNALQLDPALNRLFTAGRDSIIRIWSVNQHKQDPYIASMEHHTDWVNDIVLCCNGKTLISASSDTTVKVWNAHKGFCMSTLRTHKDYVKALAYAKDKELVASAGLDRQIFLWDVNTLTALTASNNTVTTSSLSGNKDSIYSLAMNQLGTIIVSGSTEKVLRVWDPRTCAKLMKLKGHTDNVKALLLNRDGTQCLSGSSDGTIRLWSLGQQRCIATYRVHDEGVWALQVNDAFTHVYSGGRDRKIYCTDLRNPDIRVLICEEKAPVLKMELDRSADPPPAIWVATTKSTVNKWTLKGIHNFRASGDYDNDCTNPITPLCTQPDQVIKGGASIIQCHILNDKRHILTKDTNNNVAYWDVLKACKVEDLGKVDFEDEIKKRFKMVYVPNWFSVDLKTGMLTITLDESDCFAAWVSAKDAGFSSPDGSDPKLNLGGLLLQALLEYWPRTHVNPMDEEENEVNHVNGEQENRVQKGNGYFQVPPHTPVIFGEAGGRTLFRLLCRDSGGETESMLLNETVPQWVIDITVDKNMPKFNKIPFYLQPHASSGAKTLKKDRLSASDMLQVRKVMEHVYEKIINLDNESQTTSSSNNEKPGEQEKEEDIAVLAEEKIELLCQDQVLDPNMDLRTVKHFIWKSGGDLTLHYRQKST
# Sequence of CYP2D6 (P10635 whole entry): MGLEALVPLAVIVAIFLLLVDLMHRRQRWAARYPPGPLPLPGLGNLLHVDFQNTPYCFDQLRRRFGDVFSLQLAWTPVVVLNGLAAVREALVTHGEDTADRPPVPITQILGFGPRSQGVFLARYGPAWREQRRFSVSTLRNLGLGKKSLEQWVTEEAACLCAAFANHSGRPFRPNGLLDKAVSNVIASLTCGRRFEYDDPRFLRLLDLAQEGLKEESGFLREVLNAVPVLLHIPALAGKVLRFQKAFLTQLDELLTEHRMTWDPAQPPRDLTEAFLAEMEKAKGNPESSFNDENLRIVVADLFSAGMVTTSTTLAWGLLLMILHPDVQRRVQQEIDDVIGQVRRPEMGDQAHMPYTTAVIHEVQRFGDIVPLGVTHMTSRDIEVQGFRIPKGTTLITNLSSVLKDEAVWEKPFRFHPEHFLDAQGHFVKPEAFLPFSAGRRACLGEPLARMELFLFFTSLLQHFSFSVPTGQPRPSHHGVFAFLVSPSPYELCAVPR
smiles,measurement,setting,value
"COc1ncnc(C2CC2)c1-c1ncc2c(n1)N(Cc1ccc(-n3nc(C(F)(F)F)cc3C)cc1)C(=O)OC2(C)C [Compound 74, 7-(4-cyclopropyl-6-methoxypyrimidin-5-yl)-4,4-dimethyl-1-(4-(5-methyl-3-(trifluoromethyl)-1H-pyrazol-1-yl)benzyl)-1,4-dihydro-2H-pyrimido[4,5-d][1,3]oxazin-2-one]",pIC50,[1],< 4.52
same,pIC50,[2],7.76
same,PXR activation (% Positive control),[3],13.2 % Positive control
same,pIC50,[4],5.35
same,pIC50,[5],< 4.52
same,GI50,[6],0.0307 µM
same,pIC50,[7],4.99
same,pIC50,[8],< 4.52
